Measured values from US9809853B2, “Calcium-activated chloride channel involved in human sweat formation” (BRAIN Biotechnology Research and Information Network AG, priority 2012, dated 2017).

Biological target: T1, TMEM16A(acΔe3) (Homo sapiens, UniProt Q5XXA6)
T1 construct: expressed in transfected cells
T1 sequence (Q5XXA6 1-927 isoform Q5XXA6-4): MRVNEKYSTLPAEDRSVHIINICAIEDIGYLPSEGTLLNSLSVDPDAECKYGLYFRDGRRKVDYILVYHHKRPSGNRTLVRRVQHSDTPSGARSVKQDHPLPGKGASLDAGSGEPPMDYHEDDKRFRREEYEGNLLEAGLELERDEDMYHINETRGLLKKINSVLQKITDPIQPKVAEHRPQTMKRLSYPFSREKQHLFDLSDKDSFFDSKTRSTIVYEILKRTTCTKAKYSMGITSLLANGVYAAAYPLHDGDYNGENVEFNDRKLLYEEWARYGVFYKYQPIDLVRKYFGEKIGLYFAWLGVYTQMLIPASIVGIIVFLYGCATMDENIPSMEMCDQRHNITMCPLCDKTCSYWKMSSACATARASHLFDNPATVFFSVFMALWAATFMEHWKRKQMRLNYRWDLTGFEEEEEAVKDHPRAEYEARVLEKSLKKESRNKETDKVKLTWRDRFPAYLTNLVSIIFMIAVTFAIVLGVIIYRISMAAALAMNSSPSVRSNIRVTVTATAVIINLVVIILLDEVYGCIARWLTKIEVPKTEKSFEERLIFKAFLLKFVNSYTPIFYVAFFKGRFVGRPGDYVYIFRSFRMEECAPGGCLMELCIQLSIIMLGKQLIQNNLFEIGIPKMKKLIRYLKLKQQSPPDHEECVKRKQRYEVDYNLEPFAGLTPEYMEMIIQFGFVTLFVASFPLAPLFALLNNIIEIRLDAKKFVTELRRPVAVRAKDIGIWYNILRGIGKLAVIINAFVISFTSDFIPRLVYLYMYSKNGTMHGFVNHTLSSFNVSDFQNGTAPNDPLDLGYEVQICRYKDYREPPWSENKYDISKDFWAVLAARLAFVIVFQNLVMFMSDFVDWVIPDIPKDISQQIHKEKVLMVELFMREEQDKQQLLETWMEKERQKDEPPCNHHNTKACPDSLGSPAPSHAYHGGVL
Test: hsYFP quenching assay in NCL-SG3-hsYFP-TMEM16A(acΔe3) cells
Format: cell-based
Details: 330 μM ATP; for Effect of pretreatment on hsYFP quenching / Ca^2+-dependent Cl^− secretion after ATP: cells overexpressing TMEM16A(acΔe3)
Description: NCL-SG3-hsYFP, NCL-SG 3-hsYFP-TMEM16A(ac) and NCL-SG3-hsYFP-TMEM16A(acΔe3) cells were untreated (basal activity) or stimulated with ATP (330 μM). Quenching of hsYFP fluorescence was determined. The rate of I^− influx (sec^−1) was calculated from the initial slope of measured hsYFP fluorescence (ΔYFP fluorescence/Δtime) and is a direct measure of CaCC activity. For better comparison fold changes compared to basal activity of parental cells are shown. […] All influx rate differences are higly statistically significant, except the basal influx rate of parental and TMEM16A(ac) overexpressing NCL-SG3-hsYFP cells (Student's t-test, two-tailed; *** p-value<0.0001).
TMEM16A(ac) and TMEM16A(acΔe3) are present in human eccrine sweat glands and were therefore obtained by RT-PCR amplification using TRIzol® (Invitrogen) extracted RNA from freshly isolated human eccrine sweat glands using oligonucleotides (forward 5′-[…]; reverse 5′-[…]) SEQ ID NOS: 5 and 6 , which amplify full-length TMEM16A, and subsequently cloned into the proprietary eukaryotic gene expression plasmid (pEF1α-TMEM16A(ac) and pEF1α-TMEM16A(acΔe3), FIG. 6A). […] Both genes are coupled by an internal ribosomal entry site (IRES) to enable efficient translation of both open reading frames located on the same mRNA. […]
Taken together, NCL-SG3-hsYFP cells can be used to monitor Ca^2+-dependent Cl^− fluxes, which represent the initial step in primary sweat formation in sweat gland cells. […] Microplates were transferred into an automated fluorescence plate reader (FlexStation®, Molecular Devices) and cellular hsYFP fluorescence was continuously recorded every 3.5 sec until end of the experiment (excitation at 485 nm, emission at 535 nm, cutoff 515 nm). […] NCL-SG3-hsYFP cells allow quantitative evaluation of in vivo Cl^− channel activity (FIGS. 9 and 10D). To determine the exact rate of Cl^− efflux/I^− influx the hsYFP fluorescence was plotted against time (ΔYFP fluorescence/Δtime). […]

Row | Effect of pretreatment on hsYFP quenching / Ca^2+-dependent Cl^− secretion after ATP | Effect of pretreatment on hsYFP quenching / Ca^2+-dependent Cl^− secretion after ATP (listed as tannic acid) | SMILES | ATP-induced activity (I^− influx rate, fold) (TMEM16A(acΔe3) overexpressing cells)
1 |  |  | Nc1ncnc2c1ncn2[C@@H]1O[C@H](COP(=O)(O)OP(=O)(O)OP(=O)(O)O)[C@@H](O)[C@H]1O [ATP] | 2 fold
2 | significant reduction of hsYFP quenching | inhibited | O=C(OC[C@H]1O[C@@H](OC(=O)c2cc(O)c(O)c(OC(=O)c3cc(O)c(O)c(O)c3)c2)[C@H](OC(=O)c2cc(O)c(O)c(OC(=O)c3cc(O)c(O)c(O)c3)c2)[C@@H](OC(=O)c2cc(O)c(O)c(OC(=O)c3cc(O)c(O)c(O)c3)c2)[C@@H]1OC(=O)c1cc(O)c(O)c(OC(=O)c2cc(O)c(O)c(O)c2)c1)c1cc(O)c(O)c(OC(=O)c2cc(O)c(O)c(O)c2)c1 [TA, tannic acid] | 
